In patent US10758534B2 (Vertex Pharmaceuticals Incorporated, priority 2014, dated 2020):

target: T1, F508del (Homo sapiens, UniProt P13569, DEL508-508); assay: Protocol 2: FRET membrane potential optical assay (VIPR), identification of correction compounds; type: cell-based; details: F508del CFTR modulator activity; compounds of Table 1; read-out: EC30
T1 construct: expressed in transfected cells
How it was run: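 FRET read-out (CC2-DMPE donor, DiSBAC2(3) voltage-sensitive acceptor) of membrane depolarization on VIPR II. Corrector candidates incubated 16 hrs at 37° C. with NIH3T3 cells expressing F508del; temperature correction at 27° C. as positive control; stimulation by 10 μM forskolin, 20 μM genistein, chloride-free gluconate bath.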

T1 sequence (P13569 with tags, fused parts or gaps DEL508-508): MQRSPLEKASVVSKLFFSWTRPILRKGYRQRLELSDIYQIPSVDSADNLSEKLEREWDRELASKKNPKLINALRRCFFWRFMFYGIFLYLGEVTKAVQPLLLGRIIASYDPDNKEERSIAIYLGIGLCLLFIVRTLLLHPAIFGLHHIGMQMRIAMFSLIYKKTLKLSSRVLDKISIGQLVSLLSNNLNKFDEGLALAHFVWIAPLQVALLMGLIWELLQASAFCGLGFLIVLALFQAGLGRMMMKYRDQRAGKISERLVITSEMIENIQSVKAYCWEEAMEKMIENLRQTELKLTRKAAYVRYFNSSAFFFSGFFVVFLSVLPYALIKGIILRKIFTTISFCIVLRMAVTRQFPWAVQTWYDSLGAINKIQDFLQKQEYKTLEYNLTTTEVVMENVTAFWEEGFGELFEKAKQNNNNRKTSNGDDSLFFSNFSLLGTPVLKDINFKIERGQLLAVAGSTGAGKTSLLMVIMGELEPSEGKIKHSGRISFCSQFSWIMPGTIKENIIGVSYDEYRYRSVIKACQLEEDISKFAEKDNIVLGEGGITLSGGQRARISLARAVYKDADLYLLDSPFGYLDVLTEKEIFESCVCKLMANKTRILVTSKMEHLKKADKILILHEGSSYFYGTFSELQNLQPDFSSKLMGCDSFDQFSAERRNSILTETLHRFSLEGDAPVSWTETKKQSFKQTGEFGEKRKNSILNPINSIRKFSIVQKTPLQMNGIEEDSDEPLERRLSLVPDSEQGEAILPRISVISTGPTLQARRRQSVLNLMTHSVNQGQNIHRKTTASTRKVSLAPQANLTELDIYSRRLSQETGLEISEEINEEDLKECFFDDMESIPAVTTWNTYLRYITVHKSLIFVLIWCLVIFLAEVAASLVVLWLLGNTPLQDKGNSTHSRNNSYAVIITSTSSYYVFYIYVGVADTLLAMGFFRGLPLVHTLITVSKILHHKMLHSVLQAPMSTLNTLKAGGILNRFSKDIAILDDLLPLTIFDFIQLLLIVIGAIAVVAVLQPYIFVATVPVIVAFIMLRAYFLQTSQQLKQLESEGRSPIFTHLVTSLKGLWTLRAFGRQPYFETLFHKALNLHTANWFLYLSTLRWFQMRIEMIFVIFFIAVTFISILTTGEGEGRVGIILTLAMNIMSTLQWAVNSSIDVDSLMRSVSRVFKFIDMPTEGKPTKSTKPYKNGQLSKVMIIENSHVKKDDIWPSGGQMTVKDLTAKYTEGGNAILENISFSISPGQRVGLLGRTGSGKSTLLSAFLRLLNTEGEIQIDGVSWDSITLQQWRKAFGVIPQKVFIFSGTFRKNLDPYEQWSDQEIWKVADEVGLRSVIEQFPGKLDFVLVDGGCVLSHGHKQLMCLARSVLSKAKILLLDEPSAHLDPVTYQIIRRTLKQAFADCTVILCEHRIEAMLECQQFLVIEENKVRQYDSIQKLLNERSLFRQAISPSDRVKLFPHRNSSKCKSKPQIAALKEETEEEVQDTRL

| Structure (SMILES) | EC30 |
| --- | --- |
| Cc1ccc(-c2ccc(C(=O)NS(=O)(=O)c3cccnc3N)c(N3C[C@@H](C)CC3(C)C)n2)cn1 [Compound 2363, N-[(2-amino-3-pyridyl)sulfonyl]-6-(6-methyl-3-pyridyl)-2-[(4S)-2,2,4-trimethylpyrrolidin-1-yl]pyridine-3-carboxamide] | 3000 to 10000 nM |
| C#Cc1ccc(COc2cccc(S(=O)(=O)NC(=O)c3cccnc3N3CC(C)CC3(C)C)n2)cc1 (stereo not drawn) [Compound 2610, N—[[6-[(4-ethynylphenyl)methoxy]-2-pyridyl]sulfonyl]-2-(2,2,4-trimethylpyrrolidin-1-yl)pyridine-3-carboxamide] | < 3000 nM |
| CC1CN(c2ncccc2C(=O)NS(=O)(=O)c2cccc(N[C@H](C)C(C)(C)C)n2)C(C)(C)C1 (stereo partly drawn) [Compound 2745] | < 3000 nM |
| CC1CN(c2ncccc2C(=O)NS(=O)(=O)c2cccc(Oc3ccccc3F)n2)C(C)(C)C1 (stereo not drawn) [Compound 2015, N—[[6-(2-fluorophenoxy)-2-pyridyl]sulfonyl]-2-(2,2,4-trimethylpyrrolidin-1-yl)pyridine-3-carboxamide] | < 3000 nM |
| Cc1ccc(-c2ccc(C(=O)NS(=O)(=O)c3ccc[nH]c3=O)c(N3C[C@@H](C)CC3(C)C)n2)cc1 [Compound 2438, N-[(2-oxo-1H-pyridin-3-yl)sulfonyl]-6-(p-tolyl)-2-[(4S)-2,2,4-trimethylpyrrolidin-1-yl]pyridine-3-carboxamide] | < 3000 nM |
| C[C@@H]1CN(c2nc(-c3ccc(OC(F)(F)F)cc3)ccc2C(=O)NS(=O)(=O)c2cccnc2N)C(C)(C)C1 [Compound 2223, N-[(2-amino-3-pyridyl)sulfonyl]-6-[4-(trifluoromethoxy)phenyl]-2-[(4S)-2,2,4-trimethylpyrrolidin-1-yl]pyridine-3-carboxamide] | < 3000 nM |
| C[C@@H]1CN(c2nc(-c3ccc4cc[nH]c4c3)ccc2C(=O)NS(=O)(=O)c2cccnc2N)C(C)(C)C1 [Compound 2054, N-[(2-amino-3-pyridyl)sulfonyl]-6-(1H-indol-6-yl)-2-[(4S)-2,2,4-trimethylpyrrolidin-1-yl]pyridine-3-carboxamide] | < 3000 nM |
| C[C@@H]1CN(c2nc(-c3cc(F)cc(F)c3)ccc2C(=O)NS(=O)(=O)c2cccc(N)n2)C(C)(C)C1 [Compound 2236, N-[(6-amino-2-pyridyl)sulfonyl]-6-(3,5-difluorophenyl)-2-[(4S)-2,2,4-trimethylpyrrolidin-1-yl]pyridine-3-carboxamide] | < 3000 nM |
| CC1CN(c2ncccc2C(=O)NS(=O)(=O)c2cccc(OCc3ccc(F)c(F)c3)n2)C(C)(C)C1 (stereo not drawn) [Compound 2533, N—[[6-[(3,4-difluorophenyl)methoxy]-2-pyridyl]sulfonyl]-2-(2,2,4-trimethylpyrrolidin-1-yl)pyridine-3-carboxamide] | < 3000 nM |
| Cc1cccc(Oc2cccc(S(=O)(=O)NC(=O)c3cccnc3N3CC(C)CC3(C)C)n2)n1 (stereo not drawn) [Compound 2731] | 3000 to 10000 nM |
| CC1CN(c2ncccc2C(=O)NS(=O)(=O)c2cccc(Oc3ccc(-n4cccc4)cc3)n2)C(C)(C)C1 (stereo not drawn) [Compound 2563, N—[[6-(4-pyrrol-1-ylphenoxy)-2-pyridyl]sulfonyl]-2-(2,2,4-trimethylpyrrolidin-1-yl)pyridine-3-carboxamide] | < 3000 nM |
| CC1CN(c2ncc(-c3ccc(C#N)cc3)cc2C(=O)NS(=O)(=O)c2cccc(N)n2)C(C)(C)C1 (stereo not drawn) [Compound 2304, N-[(6-amino-2-pyridyl)sulfonyl]-5-(4-cyanophenyl)-2-(2,2,4-trimethylpyrrolidin-1-yl)pyridine-3-carboxamide] | < 3000 nM |
| CC1CN(c2nc(OC(C)C3CC3)c(F)cc2C(=O)NS(=O)(=O)c2cccc(N)n2)C(C)(C)C1 (stereo not drawn) [Compound 2373, N-[(6-amino-2-pyridyl)sulfonyl]-6-(1-cyclopropylethoxy)-5-fluoro-2-(2,2,4-trimethylpyrrolidin-1-yl)pyridine-3-carboxamide] | < 3000 nM |
| CC[C@@H](C)Oc1ccn(-c2ccc(C(=O)NS(=O)(=O)c3cccnc3N)c(N3C[C@@H](C)CC3(C)C)n2)n1 [Compound 2704] | < 3000 nM |
| CC1CN(c2ncccc2C(=O)NS(=O)(=O)c2cccc(N3Cc4ccc(F)cc4C3)n2)C(C)(C)C1 (stereo not drawn) [Compound 2580, N—[[6-(5-fluoroisoindolin-2-yl)-2-pyridyl]sulfonyl]-2-(2,2,4-trimethylpyrrolidin-1-yl)pyridine-3-carboxamide] | < 3000 nM |
| COc1cc(F)ccc1-c1ccc(C(=O)NS(=O)(=O)c2cccnc2N)c(N2C[C@@H](C)CC2(C)C)n1 [Compound 2482, N-[(2-amino-3-pyridyl)sulfonyl]-6-(4-fluoro-2-methoxy-phenyl)-2-[(4S)-2,2,4-trimethylpyrrolidin-1-yl]pyridine-3-carboxamide] | < 3000 nM |

same assay, conditions: Table 3; compounds of Table 1 as modulators of CFTR activity; protocol not stated

| Structure (SMILES) | EC30 |
| --- | --- |
| CC(C)COc1cc(F)cc(-c2ccc(C(=O)NS(=O)(=O)c3cccc(N)n3)c(N3CCCC3C(C)(C)C)n2)c1 (stereo not drawn) [Compound 613, N-[(6-amino-2-pyridyl)sulfonyl]-2-(2-tert-butylpyrrolidin-1-yl)-6-(3-fluoro-5-isobutoxy-phenyl)pyridine-3-carboxamide] | +++ (“+++” means <3 uM) |
| Cc1ccc(Oc2nc(C(C)(C)C)ccc2C(=O)NS(=O)(=O)c2cccc(N)n2)c(C)c1 [Compound 204, N-[(6-amino-2-pyridyl)sulfonyl]-6-tert-butyl-2-(2,4-dimethylphenoxy)pyridine-3-carboxamide] | +++ (“+++” means <3 uM) |
| COc1cc(-c2ccc(C(=O)NS(=O)(=O)c3cccc(N)n3)c(Oc3c(C)cc(C)cc3C)n2)ccc1C [Compound 375, N-[(6-amino-2-pyridyl)sulfonyl]-6-(3-methoxy-4-methyl-phenyl)-2-(2,4,6-trimethylphenoxy)pyridine-3-carboxamide] | +++ (“+++” means <3 uM) |
| Cc1ccc(-c2ccc(C(=O)NS(=O)(=O)c3ccc[nH]c3=O)c(N3[C@H](C)CC[C@@H]3C)n2)cc1 [Compound 392, 2-[(2R,5S)-2,5-dimethylpyrrolidin-1-yl]-N-[(2-oxo-1H-pyridin-3-yl)sulfonyl]-6-(p-tolyl)pyridine-3-carboxamide] | ++ (“++” means between 3 uM and 10 uM) |
| Cc1cc(C)c(Cn2nc(C(C)(C)C)c(C)c2C(=O)NS(=O)(=O)c2cccc(N)n2)c(C)c1 [Compound 356, N-[(6-amino-2-pyridyl)sulfonyl]-5-tert-butyl-4-methyl-2-[(2,4,6-trimethylphenyl)methyl]pyrazole-3-carboxamide] | +++ (“+++” means <3 uM) |
| Cc1cccc(C)c1Cn1nc(-c2ccccc2OC(C)C)cc1C(=O)NS(=O)(=O)c1ccccc1 [Compound 277, N-(benzenesulfonyl)-2-[(2,6-dimethylphenyl)methyl]-5-(2-isopropoxyphenyl)pyrazole-3-carboxamide] | +++ (“+++” means <3 uM) |
| CC(C)Oc1ccc(-c2ccc(C(=O)NS(=O)(=O)c3cccc(N)n3)c(N3CCCCC3)n2)cn1 [Compound 567, N-[(6-amino-2-pyridyl)sulfonyl]-6-(6-isopropoxy-3-pyridyl)-2-(1-piperidyl)pyridine-3-carboxamide] | ++ (“++” means between 3 uM and 10 uM) |
| CC(C)(C)c1ccc(C(=O)NS(=O)(=O)c2ccccc2)c(OCc2ccccn2)n1 [Compound 154, N-(benzenesulfonyl)-6-tert-butyl-2-(2-pyridylmethoxy)pyridine-3-carboxamide] | +++ (“+++” means <3 uM) |
| Cn1ccc2c(Cn3nc(C(C)(C)C)cc3C(=O)NS(=O)(=O)c3ccccc3)cccc21 [Compound 245, N-(benzenesulfonyl)-5-tert-butyl-2-[(1-methylindol-4-yl)methyl]pyrazole-3-carboxamide] | ++ (“++” means between 3 uM and 10 uM) |
| CC(C)(C)c1ccc(C(=O)NS(=O)(=O)c2cccc(N)c2)c(Oc2ccccc2)n1 [Compound 272, N-(3-aminophenyl)sulfonyl-6-tert-butyl-2-phenoxy-pyridine-3-carboxamide] | ++ (“++” means between 3 uM and 10 uM) |
| Cc1ccc(-c2nc3c(cc2C(=O)NS(=O)(=O)c2cccc(N)n2)CCCC3(C)C)cc1 [Compound 444, N-[(6-amino-2-pyridyl)sulfonyl]-8,8-dimethyl-2-(p-tolyl)-6,7-dihydro-5H-quinoline-3-carboxamide] | ++ (“++” means between 3 uM and 10 uM) |
| Cc1ccc(-c2nc(C(C)(C)C)ccc2C(=O)NS(=O)(=O)c2ccccc2C#N)cc1 [Compound 623, 6-tert-butyl-N-(2-cyanophenyl)sulfonyl-2-(p-tolyl)pyridine-3-carboxamide] | ++ (“++” means between 3 uM and 10 uM) |
| Cc1cc(C)c(Cn2c(C(=O)NS(=O)(=O)c3ccccn3)cc3ccccc32)c(C)c1 [Compound 247, N-(2-pyridylsulfonyl)-1-[(2,4,6-trimethylphenyl)methyl]indole-2-carboxamide] | +++ (“+++” means <3 uM) |
| Cc1cc(C)c(Oc2nc(C)ccc2C(=O)NS(=O)(=O)c2ccn[nH]2)c(C)c1 [Compound 670, 6-methyl-N-(1H-pyrazol-5-ylsulfonyl)-2-(2,4,6-trimethylphenoxy)pyridine-3-carboxamide] | ++ (“++” means between 3 uM and 10 uM) |
| COc1cc(S(=O)(=O)NC(=O)c2ccc(C(C)(C)C)nc2Oc2c(C)cc(C)cc2C)ccn1 [Compound 217, 6-tert-butyl-N-[(2-methoxy-4-pyridyl)sulfonyl]-2-(2,4,6-trimethylphenoxy)pyridine-3-carboxamide] | +++ (“+++” means <3 uM) |
| CC(C)Oc1ccc(-c2ccc(C(=O)NS(=O)(=O)c3ccn[nH]3)c(N3CCC[C@H](c4ccccc4)C3)n2)cn1 [Compound 741, 6-(6-isopropoxy-3-pyridyl)-2-[(3R)-3-phenyl-1-piperidyl]-N-(1H-pyrazol-5-ylsulfonyl)pyridine-3-carboxamide] | +++ (“+++” means <3 uM) |
| CC1CN(c2nc(-c3ccc(NC(C)C)nc3)ccc2C(=O)NS(=O)(=O)c2cccc(N)n2)C(C)(C)C1 (stereo not drawn) [Compound 437, N-[(6-amino-2-pyridyl)sulfonyl]-6-[16-(isopropylamino)-3-pyridyl]-2-(2,2,4-trimethylpyrrolidin-1-yl)pyridine-3-carboxamide] | +++ (“+++” means <3 uM) |
